Laboratory results published in PMC9841431 (Nucleic Acids Research, 2022).

Experiments:
[1] = test system: M. tuberculosis mrx2 KO mutant (Δmrx2); format: cell-based; details: times higher
Mrx2 mutants = Mrx2 mutants (Mycobacterium tuberculosis, UniProt O53193, G95S); format: biochemical, M. tuberculosis

| SMILES | MIC of Δmrx2 relative to M. tuberculosis H37Rv [1] [times] | Activity of Mrx2G95S against the compound (Mrx2 mutants) |
| --- | --- | --- |
| O=[N+]([O-])c1cc2cc3ccc4oc([N+](=O)[O-])cc4c3cc2o1 [nNF-C2, 2,8-Dinitronaphtho[2,1-b:7,6-b']difuran] | 8 | maintained its ability to metabolize |
| COC(=O)c1ccc2c(ccc3oc([N+](=O)[O-])cc32)c1 [nNF-C4, Methyl 2-nitronaphtho[2,1-b]furan-7-carboxylate] | 16 | – |
